Assay results as given in US20240197652A1, “KETAMINE IN THE TREATMENT OF […]” (Awakn LS Europe Holdings Limited, priority 2021, published 2024).

Assays:
Format in all cases: in vivo, human
total plasma leptin = experiment: Total plasma leptin, Example 8; conditions: for total plasma leptin at 90 minutes post-lozenge / % change in total leptin: 100 mg racemic ketamine sublingual; for total plasma leptin, pre-administration: baseline before 100 mg racemic ketamine sublingual; for % change in total leptin: pre-administration to 90 minutes post-lozenge
Description: (§1) Blood samples were collected from all three subjects. Blood samples were analysed to determine ketamine and ketamine metabolite levels, as well as the hormones leptin and ghrelin. Self-report measures were conducted.
(§2) The treatment protocol commenced in substantially the same way as disclosed in the ketamine in subjects with gambling disorder study completed in EXAMPLE 7, with the exceptions outlined as follows: No behavioural tasks were completed. Blood samples collected every 10 minutes from the time of administration to 90 minutes post-administration were additionally analysed for leptin and ghrelin. Self-report measures included the Binge Eating Scale, the Adult Attachment Interview (AAI), a 20 question interview about the subject's recollections of their childhood (Sykes and Turner, 2015); the Childhood Trauma Questionnaire; the Morningness-Eveningness Questionnaire (MEQ), a 19-item questionnaire designed to assess when a respondent prefers to wake up or start sleep (American Thoracic Society, 2022); the DSM-5 Binge Eating Disorder diagnostic criteria; and the SPSRQ.
(§3) Changes in ghrelin and leptin were measured. Ghrelin stimulates appetite and food intake, increases fat deposition, and releases growth hormone. Obese binge eating disorder subjects often have reduced plasma ghrelin, possibly due to the downregulation of ghrelin from excess eating or body fat (Atalayer et al. 2013). Leptin forms a negative feedback loop between fat cells and the hypothalamus, wherein leptin secretion signals the hypothalamus to inhibit food intake and increase energy expenditure. Increased leptin may aid in reducing appetite cravings associated with binge eating disorder (Obradovic et al. 2021).

[1] = test system: subjects with gaming disorder; experiment: Adverse events, KSET, Example 9; conditions: three gaming disorder subjects; 100 mg racemic ketamine sublingual
[2] = test system: subjects with gambling disorder; experiment: Cue reactivity task: picture pleasure rating and gambling desire rating, Example 7
total plasma ghrelin = experiment: Total plasma ghrelin, Example 8; conditions: for total plasma ghrelin at 90 minutes post-lozenge / % change in total ghrelin: 100 mg racemic ketamine sublingual; for total plasma ghrelin, pre-administration: baseline before 100 mg racemic ketamine sublingual; for % change in total ghrelin: pre-administration to 90 minutes post-lozenge
Description: as §1, §2, §3

[3] = test system: subjects with gambling disorder; experiment: Gambling Related Cognitions Scale (GRCS), gambling expectancy, Example 7; conditions: for problem gambling expectancy score (GRCS) at 2-week follow up: after 100 mg racemic ketamine sublingual; for problem gambling expectancy score (GRCS), pre-administration: baseline before 100 mg racemic ketamine sublingual; for % change in problem gambling expectancy: pre-administration to 2-week follow up, 100 mg racemic ketamine sublingual
Description: The study spanned a total of 30 days (not counting initial contact and prescreening). Prescreening of all subjects was conducted by phone, and subjects recorded self-report measures, including the Sensitivity to Punishment and Sensitivity to Reward Questionnaire (SPSRQ) and the Gambling Related Cognitions Questionnaire. Prior to beginning treatment, each subject completed the Beck Depression Inventory (BDI) to determine a baseline depression score. Total scores of 0-13 are minimal, 14-19 are mild, 20-28 are moderate, and 29-63 are severe (Beck, Steer, and Brown, 1996).
The remaining follow-up sessions were completed online. Follow-up 1 was completed on Day 4, Follow-up 2 on Day 14, and Follow-up 3 on Day 30. At each follow-up session, the same self-report measures and behavioural tasks were completed.
The five-factor Gambling Related Cognitions Scale (GRCS) was also assessed. The GRCS evaluates gambling-related cognitive distortions for all types of gamblers, regardless of their gambling activities (poker, slots, horse racing, etc.) (Levesque et al., 2017). The GRCS contains five main domains, including inability to stop, expectancies, predictive control, illusion of control, and interpretative bias (Muela, Navas, and Perales, 2021). Gambling expectancy and inability to stop were predictive of problem gambling.

[4] = test system: subjects with binge eating disorder; experiment: Binge Eating Scale (BES), Example 8; conditions: for Binge Eating Scale score at 2-week follow up / BES classification at two-week follow up: after 100 mg racemic ketamine sublingual; for BES classification, pre-administration / Binge Eating Scale score, pre-administration: baseline before 100 mg racemic ketamine sublingual; for % change in Binge Eating Scale: pre-administration to 2-week follow up, 100 mg racemic ketamine sublingual
Source text: Binge eating disorder may be characterised as being mild, moderate, and severe. The severity of binge eating disorder may be determined by the Binge Eating Scale (BES), wherein a score below 17 indicates no binge eating disorder, a score of between 18-20 indicates mild binge eating disorder, a score of between 21-27 indicates moderate binge eating disorder, and a score above 27 indicates severe binge eating disorder (Grupski et al., 2013), or based on ordinary skill. In embodiments, a patient may have binge eating disorder characterised as being mild. In other embodiments, a patient may have binge eating disorder characterised as being moderate. In other embodiments, a patient may have binge eating disorder characterised as being severe.
A study was completed on the use of ketamine to treat binge eating disorder. Subjects were assessed for binge eating disorder using the Binge Eating Scale (BES), and included if they received a BES score greater than 15. Three subjects in total were included (BE1-BE3, and interchangeably on FIGS. 5 and 6 as BED1-BED3, these being the same subjects). All three were administered sublingual lozenges comprising 100 mg of racemic ketamine.
as §2

[5] = baseline before 100 mg racemic ketamine sublingual
[6] = one-week follow up after 100 mg racemic ketamine sublingual
[7] = two-week follow up after 100 mg racemic ketamine sublingual

## CNC1(c2ccccc2Cl)CCCCC1=O (racemic) [ketamine, 2-(2-chlorophenyl)-2-(methylamino)-cyclohexanone]
Total plasma leptin; subject BE1
  total plasma leptin at 90 minutes post-lozenge: 9.11 ng/mL
  total plasma leptin, pre-administration: 7.10 ng/mL
  % change in total leptin: +28.31%
Total plasma leptin; subject BE2
  total plasma leptin at 90 minutes post-lozenge: 27.98 ng/mL
  total plasma leptin, pre-administration: 21.88 ng/mL
  % change in total leptin: +27.88%
Total plasma leptin; subject BE3
  total plasma leptin at 90 minutes post-lozenge: 11.23 ng/mL
  total plasma leptin, pre-administration: 12.36 ng/mL
  % change in total leptin: −9.14%
[1]
  course of adverse events: All adverse events were transient, and resolved two hours post-lozenge
  overall tolerability: well-tolerated, with no drop-outs
  unexpected adverse reactions (KSET): No unexpected adverse reactions were observed
[2]; [5]
  gambling desire rating, mean: 2.25
  picture pleasure rating, mean: 3.25
[2]; [6]
  gambling desire rating, mean: −0.25
  picture pleasure rating, mean: 1.33
[2]; [7]
  gambling desire rating, mean: −0.25
  picture pleasure rating, mean: −0.83
Total plasma ghrelin; subject BE1
  total plasma ghrelin at 90 minutes post-lozenge: 310 pg/mL
  total plasma ghrelin, pre-administration: 254 pg/mL
  % change in total ghrelin: +22.05%
Total plasma ghrelin; subject BE2
  total plasma ghrelin at 90 minutes post-lozenge: 231 pg/mL
  total plasma ghrelin, pre-administration: 198 pg/mL
  % change in total ghrelin: +16.67%
Total plasma ghrelin; subject BE3
  total plasma ghrelin at 90 minutes post-lozenge: 274 pg/mL
  total plasma ghrelin, pre-administration: 291 pg/mL
  % change in total ghrelin: −5.84%
[3]; subject G1
  problem gambling expectancy score (GRCS) at 2-week follow up: 5.5
  problem gambling expectancy score (GRCS), pre-administration: 5
  % change in problem gambling expectancy: +10%
[3]; subject G2
  problem gambling expectancy score (GRCS) at 2-week follow up: 2.5
  problem gambling expectancy score (GRCS), pre-administration: 5.5
  % change in problem gambling expectancy: −54.55%
[3]; subject G3
  problem gambling expectancy score (GRCS) at 2-week follow up: 4.5
  problem gambling expectancy score (GRCS), pre-administration: 5.25
  % change in problem gambling expectancy: −14.29%
[3]; subject G4
  problem gambling expectancy score (GRCS) at 2-week follow up: 2.5
  problem gambling expectancy score (GRCS), pre-administration: 3.75
  % change in problem gambling expectancy: −33.33%
[3]; subject G5
  problem gambling expectancy score (GRCS) at 2-week follow up: 1
  problem gambling expectancy score (GRCS), pre-administration: 1.25
  % change in problem gambling expectancy: −20%
[4]; subject BE1
  Binge Eating Scale score at 2-week follow up: 24
  BES classification, pre-administration: moderate binge eating disorder (a score of between 21-27 indicates moderate binge eating disorder)
  Binge Eating Scale score, pre-administration: 26
  % change in Binge Eating Scale: −7.69%
[4]; subject BE1, moderate binge eating disorder pre-administration
  BES classification at two-week follow up: remained so
[4]; subject BE2
  Binge Eating Scale score at 2-week follow up: 35
  Binge Eating Scale score, pre-administration: 32
  % change in Binge Eating Scale: +9.38%
[4]; subject BE3
  Binge Eating Scale score at 2-week follow up: 28
  BES classification, pre-administration: severe binge eating disorder (a score above 27 indicates severe binge eating disorder)
  Binge Eating Scale score, pre-administration: 42
  % change in Binge Eating Scale: −33.33%
[4]; subject BE3, severe binge eating disorder pre-administration
  BES classification at two-week follow up: one point away from the moderate classification
